Entries after “also recorded” stand apart in the source; their conditions may differ.
What was measured:
[1] = tested on: misfolded MT-SOD1; experiment: Dot blot with misfolded SOD1-specific antibody; format: cell-based; details: 24 h treatment
Description: To detect misfolded SOD1 expression, cells transfected with SOD1 vectors were treated with PRG-A-04 for 24 h. After incubation, cells were lysed with […] NN buffer (50 mmol/L Tris–Cl, pH 7.5, 150 mmol/L NaCl, 0.3% NP-40), and then cell lysates were immobilized on nitrocellulose membrane using the Bio-Dot SF Microfiltration apparatus (Bio-Rad Laboratories, Hercules, CA). The membrane was washed with TBS and blocked by 5% BSA to remove background for 1 h. After blocking, the membrane was incubated with antibody for misfolded SOD1 (1:2000) or actin (1:10,000 in 1% skim milk containing TBST) for 30 min, then reacted with secondary antibody (goat anti-mouse IgG-horseradish peroxidase, 1:50,000 in 1% skim milk blocking buffer) for 30 min. Proteins were detected with ECL and X-ray film exposure. Actin was used as the loading control.

[2] = tested on: MT-SOD1 inclusions in SK-N-SH cells; experiment: SOD1 inclusions by immunofluorescence in SK-N-SH cells; format: cell-based; details: SK-N-SH cells expressing MT-SOD1, 24 h
Description: Cells on coverslips were washed with PBS, fixed with 4% PFA for 30 min at room temperature and then permeabilized in 0.1% Triton X-100/PBS for 10 min. After incubation in blocking solution (goat serum diluted 1:200 in PBS) for 1 h, cells were incubated with primary antibodies in blocking buffer for overnight at 4 °C. Finally, the cells were incubated with FITC- or Rhodamine-conjugated secondary antibody at 4 °C for 4 h. The nucleus was stained with 4, 6-diamidino-2-phenylindole and the endoplasmic reticulum (ER) was stained using the ER-Tracker Red dye for 10 min. Cells were washed three times with PBS, then the coverslips were mounted with the mounting solution (H-5501; Vector Laboratories, Burlingame, CA) and observed by fluorescence microscopy using Zeiss Apotome 2 (Software; Axiovision 4.8, Baden-Württemberg, Germany) and CELENA X (Logos Biosystems, Annandale, VA).
Cells with SOD1 aggregation were counted in the fluorescent images. Depending on the intensity of SOD1, cells with SOD1 aggregates were counted in randomly selected fields and quantified as a percentage to the total cells counted. In addition, to calculate the colocalization of the three colors of SOD1, we counted the cells where the three colored images overlapped at a point of high intensity. […]
Fig. S1. […] After incubation, cells were fixed with 4 % PFA and observed under the fluorescence microscope. […]

[3] = Plasma stability; format: in vitro ADME; details: CD-1 mouse plasma, after 120 min of incubation
[4] = molecular target: T1, SOD1-G147P (Homo sapiens, UniProt P00441, G148P); experiment: SOD1 oligomerization induced by trimer stabilizer overexpression; format: cell-based
T1 construct: expressed in transfected cells
T1 sequence (P00441 whole entry G148P): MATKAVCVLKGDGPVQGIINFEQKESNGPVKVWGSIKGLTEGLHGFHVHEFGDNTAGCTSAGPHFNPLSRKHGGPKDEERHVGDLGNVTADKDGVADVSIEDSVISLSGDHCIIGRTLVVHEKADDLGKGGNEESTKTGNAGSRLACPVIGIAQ
Description: For SDS-PAGE, proteins were extracted from cells with the RIPA buffer (50 mmol/L Tris–Cl, pH 7.5, 150 mmol/L NaCl, 1% NP-40, 0.1% SDS and […]). To detect the oligomer status, the cells were harvested with the TNNI buffer (50 mmol/L Tris–Cl, pH 7.5, 150 mmol/L NaCl, 0.3% NP-40, 100 mmol/L iodoacetamide, protease inhibitor cocktails) and reacted with 0.04% glutaraldehyde (Glu) for 30 min, and then SDS-PAGE was performed using the pan-SOD1 antibody. Samples were separated via SDS-PAGE and transferred to PVDF membrane. Blotted membranes were blocked by 3% skim milk containing TBST buffer for 1 h and incubated with specific antibodies. The following primary antibodies were used: pan-SOD1 (GTX100554) from Genetex (Irvine, CA); misfolded SOD1-specific antibody (B8H10) from MediMabs (Montreal, Canada); Actin (sc-1616), GST (sc-138), and GFP (Green fluorescent protein; sc-8036) antibodies from Santa Cruz Biotechnology (Santa Cruz, CA); TDP-43 antibody (10782–2-AP) from Proteintech (Rosemont, IL); anti-FLAG (Sigma; F3165) from Sigma-Aldrich (St. Louis, MO). HRP-conjugated goat anti-mouse, goat anti-rabbit and mouse anti-goat antibodies (Pierce, Thermo Fisher Scientific, Inc., Rockford, IL) were used as secondary antibodies. The blots were detected using an ECL assay (Advansta) and images were acquired using the […] ImageQuant 800 (Cytiva) system and an X-Ray film detector. […]

[5] = tested on: SOD1^G93A−Tg mice; experiment: Efficacy of feeding combined with i.p. injection in SOD1G93A-Tg ALS mice; format: in vivo, mouse; details: daily feeding from 7 weeks plus i.p. twice weekly from 11 weeks; vehicle about 80%
Description: Age-matched WT mice were tested as positive control. […] Mouse movement was recorded.
Meier survival curve of SOD1G93A-Tg ALS mouse model.
Lifespan of PRG-A-01 data was collected from
SOD1G93A-Tg ALS mouse model.

[6] = Metabolic stability in liver microsomes; format: in vitro ADME; details: beagle dog liver microsomes

COc1cc(C=CCOC2Cc3cc4ccc(=O)oc4cc3OC2(C)C)ccc1[N+](=O)[O-] (stereo not drawn) [PRG-A-04]
effect on misfolding SOD1 [1]: reduction in misfolding SOD1 | effect on SOD1 inclusions [2]: suppressed SOD1 inclusions | stability in plasma [3]: stable | effect on SOD1 oligomerization caused by trimer-stabilizing mutant [4]: reduced the SOD1 oligomerization | reduction of motility (rotarod latency) at 18 weeks [5]: 50% | extent of metabolism in liver microsomes [6]: moderately metabolized; also recorded: metabolized significantly

Source: article PMC12067741, “Inhibition of SOD1 trimerization is a novel drug target for ALS disease” (Translational Neurodegeneration, 2025)
